Results as given in patent US7470679B2, “Constrained compounds as CGRP-receptor antagonists” (Bristol-Myers Squibb Company, priority 2006, dated 2008).

Tests used:
[1] = biological target: T1, CGRP receptor (Homo sapiens, UniProt O60894+Q16602); assay: CGRP Binding Assay ([125I]-CGRP radioligand displacement, SK-N-MC homogenate); design: endogenous in cells; host or cells: SK-N-MC cells (membrane homogenate)
Method: CGRP Binding Assay. Tissue Culture. SK—N-MC cells were grown at 37° C. in 5% CO2 as a monolayer in medium consisting of MEM with Earle's salts and L-glutamine (Gibco) supplemented with 10% fetal bovine serum (Gibco). Cell Pellets. The cells were rinsed twice with phosphate-buffered saline (155 mM NaCl, 3.3 mM Na2HPO4, 1.1 mM KH2PO4, pH 7.4), and incubated for 5-10 min. at 4° C. in hypotonic lysis buffer consisting of 10 mM Tris (pH 7.4) and 5 mM EDTA. The cells were transferred from plates to polypropylene tubes (16×100 mm) and homogenized using a polytron. Homogenates were centrifuged at 32,000×g for 30 min. The pellets were resuspended in cold hypotonic lysis buffer with 0.1% mammalian protease inhibitor cocktail (Sigma) and assayed for protein concentration. The SK—N-MC homogenate was then aliquoted and stored at −80° C. until needed.
Radioligand Binding Assay. The compounds of invention were solubilized and carried through serial dilutions using 100% DMSO. Aliquots from the compound serial dilutions were further diluted 25 fold into assay buffer (50 mM Tris-Cl pH 7.5, 5 mM MgCl2, 0.005% Triton X-100) and transferred (volume 50 μl) into 96 well assay plates. [^125I]-CGRP (Amersham Biosciences) was diluted to 60 pM in assay buffer and a volume of 50 μl was added to each well. SK—N-MC pellets were thawed, diluted in assay buffer with fresh 0.1% mammalian protease inhibitor cocktail (Sigma), and homogenized again. SK—N-MC homogenate (5 μg/well) was added in a volume of 100 μl. The assay plates were then incubated at room temperature for 2 h. Assays were stopped by addition of excess cold wash buffer (20 mM Tris-Cl pH 7.5, 0.1% BSA) immediately followed by filtration over glass fiber filters (Whatman GF/B) previously soaked in 0.5% PEI. Non-specific binding was defined with 1 μM beta-CGRP. Protein bound radioactivity was determined using a gamma or scintillation counter. The IC50 was defined as the concentration of a compound of invention required to displace 50% of radioligand binding.

[2] = biological target: T1, CGRP receptor; assay: Cyclic AMP Functional Antagonism Assay; type: cell-based; design: cells that endogenously express the human CGRP receptor; endogenous in cells; host or cells: SK-N-MC cells; conditions: Table 2; SK-N-MC cells, 0.3 nM CGRP, 30 min; read-out: cAMP Function IC50
Method: Cyclic AMP Functional Antagonism Assay. Antagonism of the compounds of invention was determined by measuring the formation of cyclic AMP (adenosine 3′5′-cyclic monophosphate) in SK—N-MC cells that endogenously express the human CGRP receptor. CGRP receptor complex is coupled with Gs protein and CGRP binding to this complex leads to the cyclic AMP production via Gs-dependent activation of an adenylate cyclase (Juaneda C et al., TiPS, 2000; 21:432-438; incorporated by reference herein). Consequently, CGRP receptor antagonists inhibit CGRP-induced cyclic AMP formation in SK—N-MC cells (Doods H et al., Br J Pharmacol, 2000; 129(3):420-423); incorporated by reference herein). For cyclic AMP measurements SK—N-MC cells were incubated with 0.3 nM CGRP alone or in the presence of various concentrations of the compounds of invention for 30 min at room temperature. Compounds of invention were pre-incubated with SK—N-MC cells for 15 min before the addition of CGRP to allow receptor occupancy (Edvinsson et al., Eur J Pharmacol, 2001, 415:39-44; incorporated by reference herein). Cyclic AMP was extracted using the lysis reagent and its concentration was determined by radioimmunoassay using RPA559 cAMP SPA Direct Screening Assay Kit (Amersham Pharmacia Biotech). IC50 values were calculated using Excel fit.

[3] = Table 1, displacement of [125I]-CGRP
[4] = Table 2, displacement of [125I]-CGRP

T1 sequence (Q16602 23-461): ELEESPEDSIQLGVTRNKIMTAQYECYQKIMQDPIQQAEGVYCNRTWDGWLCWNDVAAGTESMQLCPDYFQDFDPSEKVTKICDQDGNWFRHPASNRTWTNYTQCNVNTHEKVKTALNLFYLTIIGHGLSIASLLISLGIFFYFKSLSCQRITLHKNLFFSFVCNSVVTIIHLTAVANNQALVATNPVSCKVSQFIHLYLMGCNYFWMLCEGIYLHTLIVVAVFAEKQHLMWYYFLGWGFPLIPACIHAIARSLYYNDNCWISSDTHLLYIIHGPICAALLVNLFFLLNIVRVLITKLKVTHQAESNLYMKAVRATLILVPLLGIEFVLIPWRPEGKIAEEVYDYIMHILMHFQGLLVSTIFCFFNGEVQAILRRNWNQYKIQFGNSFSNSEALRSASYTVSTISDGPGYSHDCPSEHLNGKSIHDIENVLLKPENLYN
T1 sequence (O60894 27-148): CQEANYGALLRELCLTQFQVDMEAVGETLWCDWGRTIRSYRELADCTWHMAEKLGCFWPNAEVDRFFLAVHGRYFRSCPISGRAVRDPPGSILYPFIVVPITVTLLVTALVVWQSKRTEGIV

Row | Structure (SMILES) | IC50 [1, 3] | IC50 [1, 4] | IC50 [2]
1 | O=C(C[C@@H]1Cc2cc(Br)c3[nH]nc(Br)c3c2CN(CC(F)(F)F)C1=O)N1CCC(c2cc3ccccc3[nH]c2=O)CC1 | 0.0001 to 0.01 µM | – | –
2 | O=C(C[C@@H]1Cc2cc(Br)c3[nH]nc(Br)c3c2CN(CC(F)(F)F)C1=O)N1CCC(c2cc3cccc(F)c3[nH]c2=O)CC1 | 0.0001 to 0.01 µM | – | –
3 | O=C(N[C@@H]1Cc2ccc3[nH]ncc3c2CN(CCN2CCOCC2)C1=O)N1CCC(N2Cc3ccccc3NC2=O)CC1 | – | 0.01 to 0.1 µM | –
4 | O=C1NCCC2(CCN(C(=O)N[C@@H]3Cc4ccc5[nH]ncc5c4CN(Cc4ccc(C(F)(F)F)cc4)C3=O)CC2)N1 | – | 0.1 to 1 µM | –
5 | O=C(NC1Cc2ccc3[nH]ncc3c2CN(CCc2ccncc2)C1=O)N1CCC(N2Cc3ccccc3NC2=O)CC1 (centres unmarked) | – | 0.0001 to 0.01 µM | 0.0001 to 0.01 µM
6 | O=C1Nc2ccccc2C2(CCN(C(=O)NC3Cc4ccc5[nH]ncc5c4CN(CCc4ccncc4)C3=O)CC2)N1 (centres unmarked) | – | 0.1 to 1 µM | –
7 | CC(C)(C)CN1Cc2c(ccc3[nH]ncc23)C[C@@H](NC(=O)N2CCC3(CC2)CNC(=O)c2ccccc23)C1=O | – | > 1 µM | –
8 | CC(C)(C)CN1Cc2c(ccc3[nH]ncc23)C[C@@H](CC(=O)N2CCC(N3Cc4ccccc4CC3=O)CC2)C1=O | – | 0.1 to 1 µM | –
9 | CC(C)(C)CN1Cc2c(cc(Cl)c3[nH]ncc23)C[C@@H](CC(=O)Nc2ccc3c(c2)CCC2(C3)NC(=O)NC2=O)C1=O (some centres unmarked) | – | 0.0001 to 0.01 µM | –
10 | CC(C)(C)CN1Cc2c(cc(Cl)c3[nH]ncc23)C[C@@H](CC(=O)Nc2ccc3c(c2)CC2(C3)NC(=O)NC2=O)C1=O (some centres unmarked) | – | 0.01 to 0.1 µM | –

Next, values leading:

Row | IC50 [1, 3] | IC50 [1, 4] | IC50 [2] | Structure (SMILES)
11 | 0.0001 to 0.01 µM | – | – | O=C1OCc2c(cc(Br)c3[nH]ncc23)C[C@H]1CC(=O)N1CCC(c2cc3ccccc3[nH]c2=O)CC1
12 | – | 0.01 to 0.1 µM | 0.0001 to 0.01 µM | CC(C)(C)CN1Cc2c(ccc3[nH]ncc23)C[C@@H](CC(=O)N2CCC(N3Cc4ccccc4NC3=O)CC2)C1=O
13 | – | 0.01 to 0.1 µM | – | O=C(C[C@@H]1Cc2cc(Cl)c3[nH]ncc3c2CN(Cc2cccnc2)C1=O)N1CCC(c2cc(-c3ccccc3)[nH]n2)CC1
14 | – | 0.01 to 0.1 µM | 0.01 to 0.1 µM | CC(C)(C)CN1Cc2c(ccc3[nH]ncc23)C[C@@H](CC(=O)N2CCC(n3cc(-c4ccccc4)[nH]c3=O)CC2)C1=O
15 | – | 0.1 to 1 µM | – | O=C1Nc2ccccc2CC1C1CCN(C(=O)C[C@@H]2Cc3ccc4[nH]ncc4c3CN(Cc3ccccc3)C2=O)CC1 (some centres unmarked)
16 | – | 0.1 to 1 µM | – | O=C1Nc2ccccc2CC1N1CCN(C(=O)C[C@@H]2Cc3ccc4[nH]ncc4c3CN(Cc3ccccc3)C2=O)CC1 (some centres unmarked)
17 | – | 0.01 to 0.1 µM | – | CC(C)(C)CN1Cc2c(cc(Cl)c3[nH]ncc23)C[C@@H](CC(=O)N2CCC(N3C(=O)CN(c4ccccc4)C3=O)CC2)C1=O
18 | – | 0.01 to 0.1 µM | – | CC(C)(C)CN1Cc2c(cc(Cl)c3[nH]ncc23)C[C@@H](CC(=O)N2CCC(c3cc4ccccc4c[n+]3[O-])CC2)C1=O
19 | – | 0.0001 to 0.01 µM | – | O=C(C[C@@H]1Cc2cc(Br)c3[nH]ncc3c2CN(CC2CC2)C1=O)N1CCC(c2cc3ccccc3[nH]c2=O)CC1
20 | – | 0.01 to 0.1 µM | – | COCCN1Cc2c(cc(Br)c3[nH]ncc23)C[C@@H](CC(=O)N2CCC(c3cc4cccc(F)c4[nH]c3=O)CC2)C1=O
